Assay results as given in BindingDB's records for patent US20250313563 (The Broad Institute, 2025).

How the values were obtained:
[1] = molecular target: Glycogen synthase kinase-3 alpha (Homo sapiens, UniProt P49840); assay: TR-FRET Assay
In short: (§1)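 Signal is measured as TR-FRET between a terbium anti-phospho-Ser641 antibody and streptavidin-d2, added after an EDTA quench. Compounds are preincubated 30 min in assay buffer.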

[2] = molecular target: Glycogen synthase kinase-3 beta (Homo sapiens, UniProt P49841); assay: TR-FRET Assay
Glycogen synthase kinase-3 beta, sequence (P49841 whole entry): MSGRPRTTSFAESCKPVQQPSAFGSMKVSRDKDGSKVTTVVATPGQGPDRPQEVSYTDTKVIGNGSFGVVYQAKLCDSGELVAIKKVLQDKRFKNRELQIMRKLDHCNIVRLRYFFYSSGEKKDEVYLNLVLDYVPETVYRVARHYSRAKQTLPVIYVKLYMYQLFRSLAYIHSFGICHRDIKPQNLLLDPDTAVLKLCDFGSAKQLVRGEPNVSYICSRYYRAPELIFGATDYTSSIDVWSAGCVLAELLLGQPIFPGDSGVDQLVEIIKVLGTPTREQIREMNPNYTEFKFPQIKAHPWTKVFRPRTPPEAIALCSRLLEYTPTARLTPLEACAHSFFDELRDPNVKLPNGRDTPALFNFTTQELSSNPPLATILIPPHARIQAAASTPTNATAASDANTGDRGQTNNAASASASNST
In short: as §1

Glycogen synthase kinase-3 alpha, sequence (P49840 whole entry): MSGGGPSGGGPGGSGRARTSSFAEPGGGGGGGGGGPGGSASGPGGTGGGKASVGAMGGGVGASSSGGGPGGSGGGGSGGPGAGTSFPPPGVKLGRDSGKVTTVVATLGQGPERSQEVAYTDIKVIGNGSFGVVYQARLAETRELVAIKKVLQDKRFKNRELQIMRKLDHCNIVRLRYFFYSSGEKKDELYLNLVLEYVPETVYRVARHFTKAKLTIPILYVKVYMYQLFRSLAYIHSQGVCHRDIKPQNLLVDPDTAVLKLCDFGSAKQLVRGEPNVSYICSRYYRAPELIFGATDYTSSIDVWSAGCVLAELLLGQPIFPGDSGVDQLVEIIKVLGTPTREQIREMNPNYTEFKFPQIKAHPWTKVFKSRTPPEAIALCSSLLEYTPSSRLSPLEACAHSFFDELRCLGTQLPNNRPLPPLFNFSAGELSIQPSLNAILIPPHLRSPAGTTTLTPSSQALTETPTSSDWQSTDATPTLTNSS

Row | Structure (SMILES) | IC50 [1] | IC50 [2]
1 | CCc1cnccc1-c1cccc([C@@]2(CC)C3=CN=NC3NC3=C2C(=O)NC(C)(C)C3)c1 (some centres not stated) [US20250313563, Compound 948639] | < 100 nM | 100 to 1000 nM
2 | CC1(C)CC(=O)C2=C(C1)NC1=C(CN=N1)[C@]21C[C@@H](n2cccn2)C1 [US20250313563, Compound 884004] | < 100 nM | < 100 nM
3 | CC1(C)CC(=O)C2=C(C1)NC1=C(CN=N1)C21COC2(CN(C(=O)C3CCCCC3)C2)C1 (configuration not stated) [US20250313563, Compound 947291] | < 100 nM | 100 to 1000 nM
4 | CCC1(c2cccc(C(F)(F)F)c2)C2=CN=NC2NC2=C1C(=O)N(C1=CN=NC1)CC2 (configuration not stated) [US20250313563, Compound 950479] | < 100 nM | 100 to 1000 nM
5 | CCN(C(C)=O)c1cccc(C2(CC)C3=CN=NC3NC3=C2C(=O)CC(C)(C)C3)c1 (configuration not stated) [US20250313563, Compound 884109] | < 100 nM | < 100 nM
6 | CC[C@@]1(c2cccc(-c3c(C)nn(C)c3C)c2)C2=C(CC(C)(C)NC2=O)NC2N=NC(C(F)(F)F)=C21 (some centres not stated) [US20250313563, Compound 948421] | < 100 nM | < 100 nM
7 | Cc1cc(C)cc(C(=O)N2CC3(C2)CC2(CO3)C3=C(N=NC3)NC3=C2C(=O)CC(C)(C)C3)c1 (configuration not stated) [US20250313563, Compound 947296] | < 100 nM | < 100 nM
8 | CC(C)(C)CC1=C2C(N=N1)NC1=C(C(=O)CC(C)(C)C1)C21CCc2c(F)cccc21 (configuration not stated) [US20250313563, Compound 789524] | 100 to 1000 nM | < 100 nM
9 | CC[C@@]1(c2cccc(-c3ccnn3C)c2)C2=CN=NC2NC2=C1C(=O)NC1(CCOCC1)C2 (some centres not stated) [US20250313563, Compound 948526] | 1000 to 5000 nM | > 5000 nM
10 | CCc1cc(-c2cccc(C3(CC)C4=CN=NC4NC4=C3C(=O)CC(C)(C)C4)c2)ccn1 (configuration not stated) [US20250313563, Compound 947493] | < 100 nM | 100 to 1000 nM
11 | COc1ccc(S(=O)(=O)N2CCC3(CC2)C2=C(N=NC2)NC2=C3C(=O)CC(C)(C)C2)c(C)c1C [US20250313563, Compound 945662] | < 100 nM | 100 to 1000 nM
12 | COc1cncc(F)c1-c1cccc([C@]2(C)C3=C(CC(C)(C)CC3=O)NC3=C2C(CC(C)(C)C)N=N3)c1 (some centres not stated) [US20250313563, Compound 108954] | 1000 to 5000 nM | 100 to 1000 nM
13 | CCC1(c2cccc(N3CCCCC3)c2)C2=CN=NC2NC2=C1C(=O)NC(C)(C)C2 (configuration not stated) [US20250313563, Compound 947566] | 1000 to 5000 nM | 1000 to 5000 nM
14 | CC[C@]1(c2cccc(-c3ccncc3C)c2)C2=CN=NC2NC2=C1C(=O)N[C@@]1(CCOC1)C2 (some centres not stated) [US20250313563, Compound 948662] | 1000 to 5000 nM | > 5000 nM
15 | CC[C@@]1(c2cccc(-c3ccnc(OC)c3Cl)c2)C2=CN=NC2NC2=C1C(=O)NC(C)(C)C2 (some centres not stated) [US20250313563, Compound 952754] | < 100 nM | 100 to 1000 nM
16 | CC1(C)CC(=O)C2=C(C1)NC1=C(CN=N1)C21CN(CC(F)F)C1 [US20250313563, Compound 912073] | 100 to 1000 nM | 100 to 1000 nM
17 | CCC1(c2cccc(N(C)C(O)C3CC3)c2)C2=CN=NC2NC2=C1C(=O)CC(C)(C)C2 (configuration not stated) [US20250313563, Compound 912067] | < 100 nM | < 100 nM
18 | CCC1(c2cccc(-c3cc(C)ncn3)c2)C2=CN=NC2NC2=C1C(=O)CC(C)(C)C2 (configuration not stated) [US20250313563, Compound 948089] | < 100 nM | 100 to 1000 nM
19 | CC[C@@]1(c2cccc(C)c2)C2=CN=NC2NC2=C1C(=O)CC1(CCCC1)C2 (some centres not stated) [US20250313563, Compound 801312] | < 100 nM | 100 to 1000 nM
20 | Cc1nccc([C@H]2CC[C@]3(CC2)C2=C(N=NC2)NC2=C3C(=O)CC(C)(C)C2)c1C [US20250313563, Compound 950478] | < 100 nM | < 100 nM
21 | Cc1ccc(S(=O)(=O)N2CCC3(CC2)C2=C(N=NC2)NC2=C3C(=O)CC(C)(C)C2)c(C)c1 [US20250313563, Compound 947468] | < 100 nM | < 100 nM
22 | CC[C@]1(c2cccc(N(C)c3cncnc3)c2)C2=CN=NC2NC2=C1C(=O)CC(C)(C)C2 (some centres not stated) [US20250313563, Compound 915400] | < 100 nM | < 100 nM
23 | CC1(C)CC(=O)C2=C(C1)NC1=C(CN=N1)C21COC2(CN(C(=O)C3(C)CCCC3)C2)C1 (configuration not stated) [US20250313563, Compound 947307] | < 100 nM | < 100 nM
24 | Cc1ccccc1CC(=O)N1CC2(C1)CC1(CO2)C2=C(N=NC2)NC2=C1C(=O)CC(C)(C)C2 (configuration not stated) [US20250313563, Compound 947295] | < 100 nM | < 100 nM
25 | CC[C@@]1(c2cccc(-c3ccnc(C(F)(F)F)c3)c2)C2=CN=NC2NC2=C1C(=O)CC(C)(C)C2 (some centres not stated) [US20250313563, Compound 943989] | > 5000 nM | > 5000 nM
26 | CC[C@@]1(c2cccc(-c3ccnc(C)c3)c2)C2=CN=NC2NC2=C1C(=O)N[C@@H](C)C2 (some centres not stated) [US20250313563, Compound 926302] | 1000 to 5000 nM | > 5000 nM
